Melting point data for 23 compounds are collected here from patent publication US20100004221A1, “THIAZEPINE DERIVATIVE” (DAIICHI SANKYO COMPANY, LIMITED, priority 2006, published 2010).

For orientation: melting point means the temperature, or range, at which the solid turns liquid.

In turn, `CCOc1ccccc1-c1nnc2n1CCSC(C)(C)C2` [Example 49, 3-(2-Ethoxyphenyl)-8,8-dimethyl-5,6,8,9-tetrahydro[1,2,4]triazolo[4,3-d][1,4]thiazepine] returned a melting point of 136 to 137 °C.
In turn, `CC1(CO)Cc2nnc(-c3ccc(N4CCOCC4)cc3Cl)n2CCS1` (centres unmarked) [Example 37, {3-[2-Chloro-4-(morpholin-4-yl)phenyl]-8-methyl-5,6,8,9-tetrahydro[1,2,4]triazolo[4,3-d][1,4]thiazepin-8-yl}methanol] showed a melting point of 191 to 193 °C.
In the case of `CC1(CO)Cc2nnc(-c3ccc(-c4cc(F)cc(F)c4)cc3Cl)n2CCS1` (centres unmarked) [Example 27, [3-(3-Chloro-3′,5′-difluorobiphenyl-4-yl)-8-methyl-5,6,8,9-tetrahydro[1,2,4]triazolo[4,3-d][1,4]thiazepin-8-yl]methanol], the melting point lay within 260 to 265 °C.
For `CC1(CO)Cc2nnc(-c3ccc(Oc4ccc(F)cc4)cc3Cl)n2CCS1` (centres unmarked) [Example 42, {3-[2-Chloro-4-(4-fluorophenoxy)phenyl]-8-methyl-5,6,8,9-tetrahydro[1,2,4]triazolo[4,3-d][1,4]thiazepin-8-yl}methanol] the value was 138 to 140 °C; for `COc1cc(-c2cccc(NS(C)(=O)=O)c2)ccc1-c1nnc2n1CCSC(C)(CO)C2` (centres unmarked) [Example 55, N-{4′-[8-(Hydroxymethyl)-8-methyl-5,6,8,9-tetrahydro[1,2,4]triazolo[4,3-d][1,4]thiazepin-3-yl]-3′-methoxybiphenyl-3-yl}methanesulfonamide], 250 to 252 °C.
Compound `CCc1ccccc1-c1nnc2n1CCSC(C)(C)C2` [Example 48, 3-(2-Ethylphenyl)-8,8-dimethyl-5,6,8,9-tetrahydro[1,2,4]triazolo[4,3-d][1,4]thiazepine] displayed a melting point of 125 °C.
Consider `CC1(CO)Cc2nnc(-c3ccc(N4CCCCC4)cc3Cl)n2CCS1` (centres unmarked) [Example 38, {3-[2-Chloro-4-(piperidin-1-yl)phenyl]-8-methyl-5,6,8,9-tetrahydro[1,2,4]triazolo[4,3-d][1,4]thiazepin-8-yl}methanol], for which the melting point was in the range of 195 to 198 °C.
Compound `CC1(CO)Cc2nnc(-c3ccc(-c4cc(Cl)ccc4F)cc3Cl)n2CCS1` (centres unmarked) [Example 29, [3-(3,5′-Dichloro-2′-fluorobiphenyl-4-yl)-8-methyl-5,6,8,9-tetrahydro[1,2,4]triazolo[4,3-d][1,4]thiazepin-8-yl]methanol] had a melting point of 186 to 189 °C.
Take `CC1(CO)Cc2nnc(-c3ccc(-c4ccccc4Cl)cc3Cl)n2CCS1` (centres unmarked) [Example 14, [3-(3,2′-Dichlorobiphenyl-4-yl)-8-methyl-5,6,8,9-tetrahydro[1,2,4]triazolo[4,3-d][1,4]thiazepin-8-yl]methanol]: the melting point fell in the range of 177 to 180 °C.
The compound `COc1ccc(-c2ccc(-c3nnc4n3CCSC(C)(CO)C4)c(Cl)c2)cc1` (centres unmarked) [Example 21, [3-(3-Chloro-4′-methoxybiphenyl-4-yl)-8-methyl-5,6,8,9-tetrahydro[1,2,4]triazolo[4,3-d][1,4]thiazepin-8-yl]methanol] returned a melting point of 179 to 182 °C.
For `CC1(CO)Cc2nnc(-c3ccc(-c4cccc(C(F)(F)F)c4)cc3Cl)n2CCS1` (centres unmarked) [Example 17, [3-(3-Chloro-3′-trifluoromethylbiphenyl-4-yl)-8-methyl-5,6,8,9-tetrahydro[1,2,4]triazolo[4,3-d][1,4]thiazepin-8-yl]methanol], the melting point lay within 195 to 198 °C.
Regarding `CC1(CO)Cc2nnc(-c3ccc(-c4cccc(Cl)c4F)cc3Cl)n2CCS1` (centres unmarked) [Example 28, [3-(3,3′-Dichloro-2′-fluorobiphenyl-4-yl)-8-methyl-5,6,8,9-tetrahydro[1,2,4]triazolo[4,3-d][1,4]thiazepin-8-yl]methanol], the melting point was 156 to 160 °C.
`CC1(CO)Cc2nnc(-c3ccc(-c4ccc(F)c(Cl)c4)cc3Cl)n2CCS1` (centres unmarked) [Example 30, [3-(3,3′-Dichloro-4′-fluorobiphenyl-4-yl)-8-methyl-5,6,8,9-tetrahydro[1,2,4]triazolo[4,3-d][1,4]thiazepin-8-yl]methanol] yielded a melting point of 235 to 239 °C.
`CC1(CO)Cc2nnc(-c3ccc(-c4cccc(F)c4)cc3Cl)n2CCS1` (centres unmarked) [Example 15, [3-(3-Chloro-3′-fluorobiphenyl-4-yl)-8-methyl-5,6,8,9-tetrahydro[1,2,4]triazolo[4,3-d][1,4]thiazepin-8-yl]methanol] showed a melting point of 206 to 209 °C.
For `CC1(CO)Cc2nnc(-c3ccc(-n4cccc4)cc3Cl)n2CCS1` (centres unmarked) [Example 40, {3-[2-Chloro-4-(1H-pyrrol-1-yl)phenyl]-8-methyl-5,6,8,9-tetrahydro[1,2,4]triazolo[4,3-d][1,4]thiazepin-8-yl}methanol] the value was 110 to 112 °C.
The compound `COc1cc(-c2ccc(F)cc2)ccc1-c1nnc2n1CCSC(C)(CO)C2` (centres unmarked) [Example 10, [3-(4′-Fluoro-3-methoxybiphenyl-4-yl)-8-methyl-5,6,8,9-tetrahydro[1,2,4]triazolo[4,3-d][1,4]thiazepin-8-yl]methanol] displayed a melting point of 212 to 215 °C.
Compound `CC1(CO)Cc2nnc(-c3cccc4c3ccn4-c3ccc(F)cc3)n2CCS1` (centres unmarked) [Example 43, {3-[1-(4-Fluorophenyl)-1H-indol-4-yl]-8-methyl-5,6,8,9-tetrahydro[1,2,4]triazolo[4,3-d][1,4]thiazepin-8-yl}methanol] yielded a melting point of 117 to 120 °C.
The value for `CC1(C)Cc2nnc(-c3ccc(F)cc3Cl)n2CCS1` [Example 50, 3-(2-Chloro-4-fluorophenyl)-8,8-dimethyl-5,6,8,9-tetrahydro[1,2,4]triazolo[4,3-d][1,4]thiazepine] was 177 to 182 °C; that for `COc1cc(-c2cccc(Cl)c2)ccc1-c1nnc2n1CCSC(C)(CO)C2` (centres unmarked) [Example 24, [3-(3′-Chloro-3-methoxybiphenyl-4-yl)-8-methyl-5,6,8,9-tetrahydro[1,2,4]triazolo[4,3-d][1,4]thiazepin-8-yl]methanol] was 173 to 176 °C.
For `CC1(CO)Cc2nnc(-c3ccc(-c4cccc(Cl)c4)cc3Cl)n2CCS1` (centres unmarked) [Example 16, [3-(3,3′-Dichlorobiphenyl-4-yl)-8-methyl-5,6,8,9-tetrahydro[1,2,4]triazolo[4,3-d][1,4]thiazepin-8-yl]methanol] the value was 173 to 176 °C.
Consider `CC1(CO)Cc2nnc(-c3ccc(-c4ccncc4)cc3Cl)n2CCS1` (centres unmarked) [Example 36, {3-[2-Chloro-4-(pyridin-4-yl)phenyl]-8-methyl-5,6,8,9-tetrahydro[1,2,4]triazolo[4,3-d][1,4]thiazepin-8-yl}methanol], for which the melting point was 229 to 233 °C.
For `COc1ccccc1-c1nnc2n1CCSC(C)(C)C2` [Example 47, 8,8-Dimethyl-3-(2-methoxyphenyl)-5,6,8,9-tetrahydro[1,2,4]triazolo[4,3-d][1,4]thiazepine] the value was 141 to 143 °C; for `CC1(CO)Cc2nnc(-c3ccc(-c4ccccc4)cc3Cl)n2CCS1` (centres unmarked) [Example 9, [3-(3-Chlorobiphenyl-4-yl)-8-methyl-5,6,8,9-tetrahydro[1,2,4]triazolo[4,3-d][1,4]thiazepin-8-yl]methanol], 166 to 169 °C.
